Data on 4 compounds can be found in publication PMC2804440 (Neuron, 2009).

Experiment [1] concerns the target T1, LGC-55 (Caenorhabditis elegans, UniProt G5EEC1).
T1 sequence (G5EEC1 17-538): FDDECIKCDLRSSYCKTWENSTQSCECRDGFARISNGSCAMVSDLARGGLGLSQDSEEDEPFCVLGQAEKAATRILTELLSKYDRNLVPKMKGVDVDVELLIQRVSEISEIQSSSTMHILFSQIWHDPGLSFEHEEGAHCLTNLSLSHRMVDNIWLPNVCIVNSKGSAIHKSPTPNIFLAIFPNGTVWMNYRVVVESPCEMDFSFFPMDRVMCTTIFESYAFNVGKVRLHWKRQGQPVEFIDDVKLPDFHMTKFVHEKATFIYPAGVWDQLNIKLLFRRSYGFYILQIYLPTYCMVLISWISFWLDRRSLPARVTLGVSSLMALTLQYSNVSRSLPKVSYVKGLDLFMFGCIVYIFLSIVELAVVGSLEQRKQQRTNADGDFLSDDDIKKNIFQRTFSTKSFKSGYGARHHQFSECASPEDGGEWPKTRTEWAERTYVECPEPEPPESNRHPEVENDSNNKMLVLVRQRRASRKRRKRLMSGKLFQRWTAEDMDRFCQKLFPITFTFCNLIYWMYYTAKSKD
The experiment can be described thus: two-electrode voltage clamp, Xenopus oocytes. In kind it is cell-based. (In general: Two-electrode voltage clamp holds a large cell at a set potential and records current.)

For experiment [2], the target named is T1, LGC-55. The experiment can be described thus: two-electrode voltage clamp, Xenopus oocytes. It counts as cell-based. The conditions noted are these: weak agonist; ND96, -60 mV, 10 s application, 22-24 °C.

In general, EC50 refers to the concentration at which the effect is half-maximal. Read a high EC50 as weaker potency. As for `NC[C@H](O)c1ccc(O)cc1` [octopamine], the EC50 at LGC-55 [1] is 215.2 ± 1.1 µM. On the same count and under the same terms, the result for `NCCc1ccc(O)cc1` [tyramine] reads 12.1 ± 1.2 µM.

`NCCc1ccc(O)c(O)c1` [dopamine] showed an EC50 at LGC-55 [1] of 158.8 ± 1.1 µM.

Consider `NCCc1c[nH]c2ccc(O)cc12` [serotonin], for which the “small inward currents at millimolar concentrations” value at LGC-55 [2] is recorded as “serotonin only elicited small LGC-55-dependent inward currents at millimolar concentrations”.
